Like-named read-outs stand apart in the source and are kept apart here.
Target: Full length SHP2 protein (Recombinant Human SHP-2) (Homo sapiens (Human), UniProt Q06124)
Assay: SHP2 biochemical assay (DiFMUP substrate, activating peptide IRSI_2pY)
Conditions: activating peptide IRSI_2pY 140 nM, DiFMUP, 60 min
[1] = SHP-2 biochemical assay IC50 (μM)
[2] = read-out: SHP-2 biochemical assay IC50

Experimental: The inhibition of SHP2 by compounds of the invention was monitored using the surrogate substrate DiFMUP after protein activation by a peptide bearing two appropriately spaced phosphotyrosine. […] The generation of the DiFMU product by activated SHP2 was monitored through Fluorescence measurement with a PerkinElmer Envision reader. The inhibitor dose response curves were analyzed with Genedata Screener.

IC50 [2]	Compound	IC50 [1]
–	Cc1c(N2CCC3(CC2)Oc2ncccc2[C@H]3N)nc(C)n(-c2cccc(Cl)c2Cl)c1=O [Compound 79a, (3M)-6-[(3R)-3-amino-3H-spiro[furo[2,3-b]pyridine-2,4′-piperidin]-1′-yl]-3-(2,3-dichlorophenyl)-2,5-dimethylpyrimidin-4-one]	0.3 µM
–	Cc1nc(N2CCC[C@](N)(CC(F)F)CC2)cc(=O)n1-c1cccc(Cl)c1Cl (racemic) [Compound 58a, (+/−)-(3M)-6-4-[(1R)-4-amino-4-(2,2-difluoroethyl)-azepan-1-yl]-3-(2,3-dichlorophenyl)-2-methyl-3,4-dihydropyrimidin-4-one]	> 10 µM
18 µM	Cc1c(N2CCC(C)(CN)CC2)nc(C)n(-c2ccc3ccccc3c2)c1=O [Compound 44, 6-(4-Aminomethyl-4-rnethyl-piperidin-1-yl)-2,5-dimethyl-3-naphthalen-2-yl-3H-pyrimidin-4-one]	–
3.9 µM	Cc1c(N2CCCC3(CCC3N)C2)nc(C)n(-c2cccc(Cl)c2Cl)c1=O (stereo not drawn) [Compound 90, 6-1-amino-6-azaspiro[3.5]nonan-6-yl-3-(2,3-dichlorophenyl)-2,5-dimethyl-3,4-dihydropyrimidin-4-one]	–
3.5 µM	Cc1nc(N2CCC(O)(CN)CC2)cc(=O)n1-c1cccc(Cl)c1Cl [Compound 28, 6-[4-(aminomethyl)-4-hydroxypiperidin-1-yl]-3-(2,3-dichlorophenyl)-2-methyl-3,4-dihydropyrimidin-4-one]	–
6.1 µM	Cc1c(N2CCC3(CC2)CO[C@@H](C)[C@H]3N)nc(C)n(-c2ccc3nccnc3c2)c1=O [Compound 53, 6-((3S,4S)-4-Amino-3-methyl-2-oxa-8-aza-spiro[4.5]dec-8-yl)-2,5-dimethyl-3-quinoxalin-6-yl-3H-pyrimidin-4-one]	–
4.6 µM	Cc1c(N2CCC3(CC2)CC3CN)nc(C)n(-c2cccc(Cl)c2Cl)c1=O (stereo not drawn) [Compound 86, 6-[1-(aminomethyl)-6-azaspiro[2.5]octan-6-yl]-3-(2,3-dichlorophenyl)-2,5-dimethyl-3,4-dihydropyrimidin-4-one]	–
7.9 µM	Cc1c(N2CC(CN)C(C)(C)C2)nc(C)n(-c2cccc(Cl)c2Cl)c1=O (stereo not drawn) [Compound 87, 6-[4-(aminomethyl)-3,3-dimethylpyrrolidin-1-yl]-3-(2,3-dichlorophenyl)-2,5-dimeihyl-3,4-dihydropyrimidin-4-one]	–
1.3 µM	Cc1c(N2CCC3(CC2)CC3N)nc(C)n(-c2cccc(Cl)c2Cl)c1=O (stereo not drawn) [Compound 89, 6-1-amino-6-azaspiro[2.5]octan-6-yl-3-(2,3-dichlorophenyl)-2,5-dimethyl-3,4-dihydropyrimidin-4-one]	–
1.2 µM	Cc1c(N2CCCC(C)(CN)CC2)nc(C)n(-c2cccc(Cl)c2Cl)c1=O (stereo not drawn) [Compound 107, (3M)-6-[4-(aminomethyl)-4-methylazepan-1-yl]-3-(2,3-dichlorophenyl)-2,5-dimethyl-3,4-dihydropyrimidin-4-one]	–
–	Cc1c(N2C[C@H]3COC[C@@]3(CN)C2)nc(C)n(-c2cccc(Cl)c2Cl)c1=O (racemic) [Compound 34, (+/−)-6-[(3aS,6aS)-3a-(aminomethyl)-hexahydro-1H-furo[3,4-c]pyrrol-5-yl]-3-(2,3-dichlorophenyl)-2,5-dimethyl-3,4-dihydropyrimidin-4-one]	1.7 µM
1.1 µM	Cc1nc(N2CCC(C)(N)CC2)c(Cl)c(=O)n1-c1cccc(Cl)c1Cl [Compound 10, 6-(4-amino-4-methylpiperidin-1-yl)-5-chloro-3-(2,3-dichlorophenyl)-2-methyl-3,4-dihydropyrimidin-4-one]	–
–	[2H]C([2H])([2H])c1c(N2CCC3(CC2)CO[C@@H](C)[C@H]3N)nc(C)n(-c2cccc(Cl)c2Cl)c1=O (single isomer, unassigned) [Compound 63a]	6 µM
–	Cc1nc(N2CCC(C)(N3CC[C@H](O)C3)CC2)cc(=O)n1-c1cccc(Cl)c1Cl (single isomer, unassigned) [Compound 72a]	> 10 µM
> 10 µM	Cc1c(N2CCC(C)(N)CC2)ncn(-c2cccc(Cl)c2Cl)c1=O [Compound 70, 6-(4-Amino-4-methyl-piperidin-1-yl)-3-(2,3-dichloro-phenyl)-5-methyl-3H-pyrimidin-4-one]	–
> 10 µM	Cc1c(N2CCC(C)(N)CC2)nc(C)n(-c2ccc3nccnc3c2)c1=O [Compound 47, 6-(4-Amino-4-methyl-piperidin-1-yl)-2,5-dimethyl-3-quinoxalin-6-yl-3H-pyrimidin-4-one]	–
> 10 µM	Cc1nc(N2CCC(C)(CN)CC2)cc(=O)n1-c1c(F)ccc(Cl)c1Cl (single isomer, unassigned) [Compound 33a, (3P)-6-[4-(aminomethyl)-4-methylpiperidin-1-yl]-3-(2,3-dichloro-6-fluorophenyl)-2-methyl-3,4-dihydropyrimidin-4-one]	–
5.6 µM	Cc1c(N2CCC(C)(CN)CC2)nc(C)n(-c2ccc3ccccc3c2Cl)c1=O [Compound 54, 6-(4-Aminomethyl-4-methyl-piperidin-1-yl)-3-(1-chloro-naphthalen-2-yl)-2,5-dimethyl-3H-pyrimidin-4-one]	–
4.3 µM	Cc1nc(N2CCC(NC[C@H](O)CO)CC2)cc(=O)n1-c1cccc(Cl)c1Cl [Compound 42, 3-(2,3-dichlorophenyl)-6-(4-{[(2S)-2,3-dihydroxypropyl]amino}-piperidin-1-yl)-2-methyl-3,4-dihydropyrimidin-4-one]	–
0.59 µM	Cc1c(N2CCC(CN)(CO)CC2)nc(C)n(-c2cccc(Cl)c2Cl)c1=O [Compound 88, 6-[4-(aminomethyl)-4-(hydroxymethyl)piperidin-1-yl]-3-(2,3-dichlorophenyl)-2,5-dimethyl-3,4-dihydropyrimidin-4-one]	–
7.3 µM	Cc1ccc(Cl)c(Cl)c1-n1c(C)nc(N2CCC3(CC2)CO[C@@H](C)[C@H]3N)c(C)c1=O [Compound 102, 6-((3S,4S)-4-Amino-3-methyl-2-oxa-8-aza-spiro[4.5]dec-8-yl)-3-(2,3-dichloro-6-methyl-phenyl)-2,5-dimethyl-3H-pyrimidin-4-one]	–
4.3 µM	Cc1nc(N2CCC(CO)(CCN)CC2)cc(=O)n1-c1cccc(Cl)c1Cl [Compound 16, 6-[4-(2-aminoethyl)-4-(hydroxymethyl)piperidin--yl]-3-(2,3-dichlorophenyl)-2-methyl-3,4-dihydropyrimidin-4-one]	–
3.8 µM	CC1(N)CCN(c2cc(=O)n(-c3cccc(Cl)c3Cl)c(C(F)F)n2)CC1 [Compound 11, 6-(4-amino-4-methylpiperidin-1-yl)-3-(2,3-dichlorophenyl)-2-(difluoromethyl)-3,4-dihydropyrimidin-4-one]	–
–	Cc1nc(N2CCC3(CC2)CO[C@@H](C)[C@H]3N)nc(=O)n1-c1cccc(Cl)c1Cl (single isomer, unassigned) [Compound 37b]	> 10 µM

Compound	IC50 [2]	IC50 [1]
Cc1c(N2CCC3(CC2)Oc2cnccc2[C@@H]3N)nc(C)n(-c2cccc(Cl)c2Cl)c1=O (single isomer, unassigned) [Compound 80d]	1.4 µM	–
(3M)-6-[(3aR,6aS)-3a-(aminomethyl)-5- (hydroxymethyl)- octahydrocyclopenta[c]pyrrol-2-yl]-3- (2,3-dichlorophenyl)-2,5-dimethyl-3,4- dihydropyrimidin-4-one [Compound 101]	0.23 µM	–
Cc1nc(N2CC3CCC(C2)N3)cc(=O)n1-c1cccc(Cl)c1Cl [Compound 56, 6-3,8-diazabicyclo[3.2.1]octan-3-yl-3-(2,3-dichlorophenyl)-2-methyl-3,4-dihydropyrimidin-4-one]	5.2 µM	–
